# Data: ChEMBL document CHEMBL1148601, “Inhibition of cytosolic phospholipase A2alpha: hit to lead optimization” (J Med Chem, 2006)
# System: not listed separately
# Assay: Inhibition of LTB4 production in MC9 cells at 0.5 uM
# Format: functional
# Conditions: Mus musculus
row,SMILES,inhibition at 0.5 µM
1,Cc1c(CCS(=O)(=O)c2ccc(CCC(=O)O)cc2)c2cc(Cl)ccc2n1C(c1ccccc1)c1ccccc1,100%
2,Cc1c(CCS(=O)(=O)c2ccc(C(=O)O)cc2)c2cc(Cl)ccc2n1C(c1ccccc1)c1ccccc1,82%

# System: not listed separately
# Assay: Plasma concentration in rat
# Format: ADME, organism-based
# Conditions: not given
row,clearance,SMILES
1,3.2 mL/min/kg,Cc1c(CCOc2ccc(C(=O)O)cc2)c2cc(Cl)ccc2n1C(c1ccccc1)c1ccccc1
2,47 mL/min/kg,Cc1c(CCS(=O)(=O)c2ccc(CCC(=O)O)cc2)c2cc(Cl)ccc2n1C(c1ccccc1)c1ccccc1
3,44 mL/min/kg,Cc1c(CCS(=O)(=O)c2ccc(C(=O)O)cc2)c2cc(Cl)ccc2n1C(c1ccccc1)c1ccccc1

# System: not listed separately
# Assay: Oral bioavailability in rat
# Format: ADME, organism-based
# Conditions: in vivo
row,bioavailability,SMILES
1,2.6%,Cc1c(CCOc2ccc(C(=O)O)cc2)c2cc(Cl)ccc2n1C(c1ccccc1)c1ccccc1
2,11%,Cc1c(CCS(=O)(=O)c2ccc(CCC(=O)O)cc2)c2cc(Cl)ccc2n1C(c1ccccc1)c1ccccc1
3,39%,Cc1c(CCS(=O)(=O)c2ccc(C(=O)O)cc2)c2cc(Cl)ccc2n1C(c1ccccc1)c1ccccc1

# System: not listed separately
# Assay: Inhibition of LTB4 production expressed in MC9 cells in presence of 8 megacells/mL
# Format: functional, cell-based
# Conditions: Mus musculus
row,IC50,SMILES
1,8.3 µM,COc1cc(C(=O)O)ccc1Cc1cn(C(c2ccccc2)c2ccccc2)c2cc(Cl)ccc12

# System: not listed separately
# Assay: Inhibition of TXB2 production in Sprague-Dawley rat whole blood
# Format: functional, tissue-based
# Conditions: not given
row,IC50,SMILES
1,8 µM,Cc1c(CCOc2ccc(C(=O)O)cc2)c2cc([N+](=O)[O-])ccc2n1C(c1ccccc1)c1ccccc1
2,2 µM,Cc1c(CCOc2ccc(CCC(=O)O)cc2)c2cc(Cl)ccc2n1C(c1ccccc1)c1ccccc1
3,3 µM,Cc1c(CCOc2ccc(C(=O)O)cc2)c2cc(Br)ccc2n1C(c1ccccc1)c1ccccc1
4,3 µM,Cc1c(CC[S+]([O-])c2ccc(C(=O)O)cc2)c2cc(Cl)ccc2n1C(c1ccccc1)c1ccccc1 (stereo unspecified)
5,2 µM,Cc1c(CCS(=O)(=O)c2ccc(C(=O)O)cc2)c2cc(Cl)c(Cl)cc2n1C(c1ccccc1)c1ccccc1
6,12 µM,Cc1c(CCS(=O)(=O)c2ccc(C(=O)O)cc2)c2c(Cl)cccc2n1C(c1ccccc1)c1ccccc1
7,8 µM,Cc1c(CCOc2ccc(C(=O)O)c(F)c2)c2cc(Cl)ccc2n1C(c1ccccc1)c1ccccc1
8,5 µM,Cc1c(CCS(=O)(=O)c2ccc(C(=O)O)cc2)c2cc(F)ccc2n1C(c1ccccc1)c1ccccc1
9,> 400 µM,COc1cc(C(=O)O)ccc1Cc1cn(C(c2ccccc2)c2ccccc2)c2cc(Cl)ccc12
10,25 µM,Cc1c(CCOc2ccc(C(=O)O)c(Cl)c2)c2cc(Cl)ccc2n1C(c1ccccc1)c1ccccc1
11,9 µM,Cc1c(CCCCOc2ccc(C(=O)O)cc2)c2cc(Cl)ccc2n1C(c1ccccc1)c1ccccc1
12,4 µM,Cc1c(CCS(=O)(=O)c2ccc(C(=O)O)cc2)c2c(Cl)c(Cl)ccc2n1C(c1ccccc1)c1ccccc1
13,6 µM,Cc1c(CCS(=O)(=O)c2ccc(C(=O)O)cc2)c2ccccc2n1C(c1ccccc1)c1ccccc1
14,12 µM,O=C(COc1ccc(SCCCCCc2ccccc2)cc1)COc1ccc(C(=O)O)cc1
15,10 µM,Cc1c(CCSc2ccc(C(=O)O)cc2)c2cc(Cl)ccc2n1C(c1ccccc1)c1ccccc1
16,7 µM,Cc1c(CCOc2ccc(C(=O)O)cc2)c2cc(Cl)ccc2n1C(c1ccccc1)c1ccccc1
17,5 µM,Cc1c(CCS(=O)(=O)c2ccc(C(=O)O)cc2)c2ccc(Cl)cc2n1C(c1ccccc1)c1ccccc1
18,> 10 µM,Cc1c(CCOc2ccc(C(=O)O)cc2)c2cc(N3CCOCC3)ccc2n1C(c1ccccc1)c1ccccc1
19,14 µM,Cc1c(CCS(=O)(=O)CCc2ccc(C(=O)O)cc2)c2cc(Cl)ccc2n1C(c1ccccc1)c1ccccc1
20,50 µM,Cc1c(CCOc2ccc(CCCC(=O)O)cc2)c2cc(Cl)ccc2n1C(c1ccccc1)c1ccccc1
21,25 µM,Cc1c(C(=O)C(=O)Nc2ccc(C(=O)O)cc2)c2cc(Cl)ccc2n1C(c1ccccc1)c1ccccc1
22,0.8 µM,Cc1c(CCS(=O)(=O)c2ccc(CCC(=O)O)cc2)c2cc(Cl)ccc2n1C(c1ccccc1)c1ccccc1
23,2 µM,Cc1c(CCS(=O)(=O)c2ccc(C(=O)O)cc2)c2cc(Cl)ccc2n1C(c1ccccc1)c1ccccc1

# System: not listed separately
# Assay: Inhibition of PGF2-alpha production in MC9 cells at 0.5 uM
# Format: functional
# Conditions: Mus musculus
row,SMILES,inhibition at 0.5 µM
1,Cc1c(CCS(=O)(=O)c2ccc(CCC(=O)O)cc2)c2cc(Cl)ccc2n1C(c1ccccc1)c1ccccc1,100%
2,Cc1c(CCS(=O)(=O)c2ccc(C(=O)O)cc2)c2cc(Cl)ccc2n1C(c1ccccc1)c1ccccc1,72%

# System: not listed separately
# Assay: Inhibition of LTB4 production in human whole blood
# Format: functional, tissue-based
# Conditions: not given
row,IC50,SMILES
1,30 µM,Cc1c(CCOc2ccc(C(=O)O)cc2)c2cc(Cl)ccc2n1C(c1ccccc1)c1ccccc1
2,0.9 µM,Cc1c(CCS(=O)(=O)c2ccc(CCC(=O)O)cc2)c2cc(Cl)ccc2n1C(c1ccccc1)c1ccccc1
3,6.3 µM,Cc1c(CCS(=O)(=O)c2ccc(C(=O)O)cc2)c2cc(Cl)ccc2n1C(c1ccccc1)c1ccccc1

# System: not listed separately
# Assay: Inhibition of PGF2-alpha production in MC9 cells at 1.5 uM
# Format: functional
# Conditions: Mus musculus
row,SMILES,inhibition at 1.5 µM
1,Cc1c(CCOc2ccc(C(=O)O)cc2)c2cc(Cl)ccc2n1C(c1ccccc1)c1ccccc1,81%

# System: not listed separately
# Assay: Inhibition of PGF2-alpha production in the presence of exogenous arachidonic acid in MC9 cell at 1.5 uM
# Format: functional
# Conditions: Mus musculus
row,SMILES,inhibition at 1.5 µM
1,Cc1c(CCOc2ccc(C(=O)O)cc2)c2cc(Cl)ccc2n1C(c1ccccc1)c1ccccc1,-8%

# Biological target: T1, Cytosolic phospholipase A2 (Homo sapiens, UniProt P47712)
# T1 sequence (P47712 whole entry): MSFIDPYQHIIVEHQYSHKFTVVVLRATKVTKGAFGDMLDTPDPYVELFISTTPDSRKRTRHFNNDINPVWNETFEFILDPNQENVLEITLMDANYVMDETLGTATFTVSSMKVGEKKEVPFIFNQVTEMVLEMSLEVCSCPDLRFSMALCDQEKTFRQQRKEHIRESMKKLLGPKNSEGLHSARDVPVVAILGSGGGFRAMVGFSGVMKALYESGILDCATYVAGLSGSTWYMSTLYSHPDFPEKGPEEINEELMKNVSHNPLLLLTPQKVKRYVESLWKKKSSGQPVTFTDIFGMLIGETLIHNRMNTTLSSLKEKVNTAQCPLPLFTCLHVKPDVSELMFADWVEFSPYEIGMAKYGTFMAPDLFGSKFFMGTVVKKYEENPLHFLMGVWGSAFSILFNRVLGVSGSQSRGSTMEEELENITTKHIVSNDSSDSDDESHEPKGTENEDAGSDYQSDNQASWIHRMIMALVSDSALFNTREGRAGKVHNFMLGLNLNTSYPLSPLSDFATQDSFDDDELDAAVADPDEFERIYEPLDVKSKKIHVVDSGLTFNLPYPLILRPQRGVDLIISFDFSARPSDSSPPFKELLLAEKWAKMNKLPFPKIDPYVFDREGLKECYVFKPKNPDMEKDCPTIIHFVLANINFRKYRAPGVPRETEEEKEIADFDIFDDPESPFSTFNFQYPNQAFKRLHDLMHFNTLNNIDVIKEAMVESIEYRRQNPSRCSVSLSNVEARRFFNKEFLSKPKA
# Assay: Inhibition of cytosolic phospholipase A2-alpha in GLU micelle assay
# Conditions: not given
row,IC50,SMILES
1,5 µM,Cc1c(CCOc2ccc(C(=O)O)cc2)c2cc([N+](=O)[O-])ccc2n1C(c1ccccc1)c1ccccc1
2,3 µM,Cc1c(CCOc2ccc(CCC(=O)O)cc2)c2cc(Cl)ccc2n1C(c1ccccc1)c1ccccc1
3,2 µM,Cc1c(CCOc2ccc(C(=O)O)cc2)c2cc(Br)ccc2n1C(c1ccccc1)c1ccccc1
4,1 µM,Cc1c(CC[S+]([O-])c2ccc(C(=O)O)cc2)c2cc(Cl)ccc2n1C(c1ccccc1)c1ccccc1 (stereo unspecified)
5,3 µM,Cc1c(CCS(=O)(=O)c2ccc(C(=O)O)cc2)c2cc(Cl)c(Cl)cc2n1C(c1ccccc1)c1ccccc1
6,2 µM,Cc1c(CCS(=O)(=O)c2ccc(C(=O)O)cc2)c2c(Cl)cccc2n1C(c1ccccc1)c1ccccc1
7,2 µM,Cc1c(CCOc2ccc(C(=O)O)c(F)c2)c2cc(Cl)ccc2n1C(c1ccccc1)c1ccccc1
8,1 µM,Cc1c(CCS(=O)(=O)c2ccc(C(=O)O)cc2)c2cc(F)ccc2n1C(c1ccccc1)c1ccccc1
9,160 µM,COc1cc(C(=O)O)ccc1Cc1cn(C(c2ccccc2)c2ccccc2)c2cc(Cl)ccc12
10,7 µM,Cc1c(CCOc2ccc(C(=O)O)c(Cl)c2)c2cc(Cl)ccc2n1C(c1ccccc1)c1ccccc1
11,2 µM,Cc1c(CCCCOc2ccc(C(=O)O)cc2)c2cc(Cl)ccc2n1C(c1ccccc1)c1ccccc1
12,1 µM,Cc1c(CCS(=O)(=O)c2ccc(C(=O)O)cc2)c2c(Cl)c(Cl)ccc2n1C(c1ccccc1)c1ccccc1
13,2 µM,Cc1c(CCS(=O)(=O)c2ccc(C(=O)O)cc2)c2ccccc2n1C(c1ccccc1)c1ccccc1
14,0.04 µM,O=C(COc1ccc(SCCCCCc2ccccc2)cc1)COc1ccc(C(=O)O)cc1
15,2 µM,Cc1c(CCSc2ccc(C(=O)O)cc2)c2cc(Cl)ccc2n1C(c1ccccc1)c1ccccc1
16,3 µM,Cc1c(CCOc2ccc(C(=O)O)cc2)c2cc(Cl)ccc2n1C(c1ccccc1)c1ccccc1
17,4 µM,Cc1c(CCS(=O)(=O)c2ccc(C(=O)O)cc2)c2ccc(Cl)cc2n1C(c1ccccc1)c1ccccc1
18,22 µM,Cc1c(CCOc2ccc(C(=O)O)cc2)c2cc(N3CCOCC3)ccc2n1C(c1ccccc1)c1ccccc1
19,93 µM,Cc1c(CCS(=O)(=O)CCc2ccc(C(=O)O)cc2)c2cc(Cl)ccc2n1C(c1ccccc1)c1ccccc1
20,20 µM,Cc1c(CCOc2ccc(CCCC(=O)O)cc2)c2cc(Cl)ccc2n1C(c1ccccc1)c1ccccc1
21,26 µM,Cc1c(C(=O)C(=O)Nc2ccc(C(=O)O)cc2)c2cc(Cl)ccc2n1C(c1ccccc1)c1ccccc1
22,0.5 µM,Cc1c(CCS(=O)(=O)c2ccc(CCC(=O)O)cc2)c2cc(Cl)ccc2n1C(c1ccccc1)c1ccccc1
23,0.8 µM,Cc1c(CCS(=O)(=O)c2ccc(C(=O)O)cc2)c2cc(Cl)ccc2n1C(c1ccccc1)c1ccccc1

# System: not listed separately
# Assay: Inhibition of TXB2 production in human whole blood
# Format: functional, tissue-based
# Conditions: not given
row,IC50,SMILES
1,34 µM,Cc1c(CCOc2ccc(C(=O)O)cc2)c2cc(Cl)ccc2n1C(c1ccccc1)c1ccccc1
2,1.4 µM,Cc1c(CCS(=O)(=O)c2ccc(CCC(=O)O)cc2)c2cc(Cl)ccc2n1C(c1ccccc1)c1ccccc1
3,8.4 µM,Cc1c(CCS(=O)(=O)c2ccc(C(=O)O)cc2)c2cc(Cl)ccc2n1C(c1ccccc1)c1ccccc1

# System: not listed separately
# Assay: Inhibition of LTB4 production in MC9 cells at 1.5 uM
# Format: functional
# Conditions: Mus musculus
row,SMILES,inhibition at 1.5 µM
1,Cc1c(CCOc2ccc(C(=O)O)cc2)c2cc(Cl)ccc2n1C(c1ccccc1)c1ccccc1,96%

# System: not listed separately
# Assay: Inhibition of PGF2-alpha production in the presence of exogenous arachidonic acid in MC9 cells at 0.5 uM
# Format: functional
# Conditions: Mus musculus
row,SMILES,inhibition at 0.5 µM
1,Cc1c(CCS(=O)(=O)c2ccc(CCC(=O)O)cc2)c2cc(Cl)ccc2n1C(c1ccccc1)c1ccccc1,2%
2,Cc1c(CCS(=O)(=O)c2ccc(C(=O)O)cc2)c2cc(Cl)ccc2n1C(c1ccccc1)c1ccccc1,8%

# System: not listed separately
# Assay: Inhibition of LTB4 production expressed in MC9 cells in presence of 1 megacells/mL
# Format: functional, cell-based
# Conditions: Mus musculus
row,IC50,SMILES
1,0.8 µM,COc1cc(C(=O)O)ccc1Cc1cn(C(c2ccccc2)c2ccccc2)c2cc(Cl)ccc12

# System: not listed separately
# Assay: Inhibition of LTB4 production expressed in MC9 cells in presence of 4 megacells/mL
# Format: functional, cell-based
# Conditions: Mus musculus
row,IC50,SMILES
1,1.5 µM,COc1cc(C(=O)O)ccc1Cc1cn(C(c2ccccc2)c2ccccc2)c2cc(Cl)ccc12
2,1.5 µM,O=C(COc1ccc(SCCCCCc2ccccc2)cc1)COc1ccc(C(=O)O)cc1
